Experimental findings from patent US20250326755A1, “CYCLIC QUATERNARY AMMONIUM SALT COMPOUND, AND PREPARATION METHOD THEREFOR AND USE THEREOF” (YICHANG HUMANWELL PHARMACEUTICAL CO., LTD., priority 2022, published 2025) are described below.

Read-outs that look alike come from different tables or passages of the source.

Experiment [1] has as its system rat subcutaneous infiltration model. Briefly: Local anesthetic effect by subcutaneous infiltration, Von Frey needle stimulation of back skin. The note with it: 1 mg/ml, 0.5 mL subcutaneous injection on the back, 10 rats. It counts as in vivo, SD rats. Here is the method: After shaving and disinfecting the backs of SD rats (half male and half female) weighing 190-210 grams, a circle with a diameter of approximately 1.5 cm was drawn on one side of the exposed skin. 0.5 mL of a solution containing the drug was subcutaneously injected into the skin in the center. The solution, using physiological saline as the solvent, contained either 2 mg/ml bupivacaine hydrochloride or 1 mg/ml concentration of the compounds listed in Table 2 of the present application. Each group consisted of 10 rats. A Von Frey fiber with a 100-gram force was attached to a needle for local skin stimulation. One minute after drug administration, the rat's response to the stimulus was measured. Testing was conducted at 6 different points within the marked area of drug administration. Skin contraction, avoidance, and other behaviors following stimulation were observed and recorded. Three points in the center and three points around the circle were stimulated, and the number of skin contraction and avoidance behaviors was recorded as N6. […] Each compound was tested on 10 rats.

The test system of a further experiment is sciatic nerve of the rat. It counts as in vivo, SD rats. As to the method:
The experimental methods described in the following test examples were standard procedures unless otherwise specified. All experimental animals used in the following test examples were SD rats purchased from Hunan Slac Jingda Experimental Animal Co., Ltd. Other test materials, unless stated otherwise, were purchased from conventional biochemical reagent suppliers.
The compounds listed in Table 1 and levobupivacaine hydrochloride (positive control) were administered to three groups of rats fully acclimated to the experimental environment, with one rat per group.
Solution Preparation: 2 mg/ml Levobupivacaine Hydrochloride Injection: 2.670 ml of 7.5 mg/ml levobupivacaine hydrochloride injection (Batch No. 92S0702) was pipetted into a 10 ml volumetric flask. 0.9% NaCl solution was added until the meniscus was level with the calibration line, and the solution was inverted and mixed thoroughly, to prepare 2 mg/ml levobupivacaine hydrochloride injection. 2 mg/ml Example Compound Solution: 6.6 mg of the example compound was accurately weighed and dissolved in 3.3 ml of 0.9% NaCl solution to prepare a 2 mg/ml example compound solution.
Both the positive control and the example compound were administered to each rat at 2 mg/ml, with an administration volume of 5 ml/kg, in a single injection near the sciatic nerve of the rat. After the administration, the rat was placed on a preheated hot plate (50±0.1° C.) of an intelligent hot plate instrument. […] The maximum thermal latency was controlled at 60 s. […] Any urine or feces on the hot plate was promptly cleaned and dried before subsequent tests.
Thermal latency results were expressed as the maximum proportional effect (MPE), calculated using the following formula.
Wherein: B represented the basal thermal latency of the rats; P was the maximum thermal latency C was the observed thermal latency at the detection time point.
Measurements were considered invalid if the MPE was less than 50% of the maximum proportional effect. If two consecutive measurements yielded an MPE of less than […], the experiment was terminated.

The mark [2] stands for this setting: 2 mg/ml, 5 ml/kg, single injection near the sciatic nerve of the rat, hot plate 50±0.1° C.

Take `CCCC[N+]1(CCCCCN2CCn3ccnc3C2)CCCC[C@H]1C(=O)Nc1c(C)cccc1C` (stereo partly drawn) [Compound of Example 11, (2S)-1-Butyl-1-(5-(5,6-dihydroimidazo[1,2-a]pyrazin-7(8H)-yl)pentyl)-2-((2,6-dimethylphenyl)carbamoyl)piperidine bromide]: the Duration/h in experiment [1] is 48 to 72 h; in the experiment with sciatic nerve of the rat (setting [2]), 24 to 48 h. Moreover, the “Onset Time/min” value (in experiment [1]; in the experiment on sciatic nerve of the rat (setting [2])) was 1 min each time.

In the case of `CCCC[N+]1(CCCCCN2CCn3cccc3C2C)CCCC[C@H]1C(=O)Nc1c(C)cccc1C` (stereo partly drawn) [Compound of Example 12, (2S)-1-Butyl-2-((2,6-dimethylphenyl)carbamoyl)-1-(5(1-methyl-3,4-dihydropyrrolo[1,2-a]pyrazin-2(1H)-yl)pentyl)piperidine bromide], in experiment [1], the Duration/h is 48 to 72 h and the “Onset Time/min” value was 1 min. In addition, in the experiment with sciatic nerve of the rat (setting [2]), the Duration/h lay within 24 to 48 h and the “Onset Time/min” value was found to be 1 min.

As for `CCCC[N+]1(CCCCCN2CCn3cccc3C2c2ccccc2)CCCC[C@H]1C(=O)Nc1c(C)cccc1C` (stereo partly drawn) [Compound of Example 13, (2S)-1-Butyl-2-((2,6-dimethylphenyl)carbamoyl)-1-(5-1-phenyl-3,4-dihydropyrrolo[1,2-a]pyrazin-2(1H)-yl)pentyl)piperidine bromide], in experiment [1], the Duration/h fell in the range of 48 to 72 h and the “Onset Time/min” value is given as 1 min. In addition, in the experiment on sciatic nerve of the rat (setting [2]), the Duration/h was in the range of 24 to 48 h and the “Onset Time/min” value came out at 1 min.

For `CCCC[N+]1(CCCCCOc2ccccc2)CCCC[C@H]1C(=O)Nc1c(C)cccc1C` (stereo partly drawn) [Compound of Example 14, (2S)-1-Butyl-2-((2,6-dimethylphenyl)carbamoyl)-1-(5-(phenoxy)pentyl)piperidine bromide], in experiment [1], the Duration/h was 48 to 72 h and the “Onset Time/min” value is given as 2 min. Further, in the experiment with sciatic nerve of the rat (rat, in vivo), the Duration/h lay in the range of 24 to 48 h and the “Onset Time/min” value worked out at 2 min.

Regarding `CCCC[N+]1(CCCCCOc2cccc(C)c2)CCCC[C@H]1C(=O)Nc1c(C)cccc1C` (stereo partly drawn) [Compound of Example 15, (2S)-1-Butyl-2-((2,6-dimethylphenyl)carbamoyl)-1-(5-(m-tolyloxy)pentyl)piperidine bromide], the Duration/h fell in the range of 48 to 72 h in experiment [1] and 24 to 48 h with sciatic nerve of the rat (setting [2]). The “Onset Time/min” value (in experiment [1]; in the experiment on sciatic nerve of the rat (setting [2])) was 1 min throughout.

Consider `CCCC[N+]1(CCCCCOc2cc(F)ccc2N)CCCC[C@H]1C(=O)Nc1c(C)cccc1C` (stereo partly drawn) [Compound of Example 16, (2S)-1-(5-(2-amino-5-fluorophenoxy)pentyl)-1-butyl-2-((2,6-dimethylphenyl)carbamoyl)piperidine bromide], for which the values for the Duration/h (in experiment [1]; in the experiment with sciatic nerve of the rat (setting [2])) were 48 to 72 h and 24 to 48 h, respectively. Also, the “Onset Time/min” value (in experiment [1]; in the experiment with sciatic nerve of the rat (setting [2])) was 1 min each time.

For `CCCC[N+]1(CCC(C)CCNc2ccc(F)cc2)CCCC[C@H]1C(=O)Nc1c(C)cccc1C` (stereo partly drawn) [Compound of Example 18, (2S)-1-Butyl-2-((2,6-dimethylphenyl)carbamoyl)-1-(5-(((4-fluorophenyl)amino)-3-methylpentyl)piperidine bromide], the Duration/h is 24 to 28 h in experiment [1] and 17 h with sciatic nerve of the rat (setting [2]). Further, the “Onset Time/min” value (in experiment [1]; in the experiment on sciatic nerve of the rat (setting [2])) was 2 min throughout.

For `CCCC[N+]1(CCCCOc2ccc(F)cc2)CCCC[C@H]1C(=O)Nc1c(C)cccc1C` (stereo partly drawn) [Compound of Example 24, (2S)-1-Butyl-2-((2,6-dimethylphenyl)carbamoyl)-1-(4-(4-fluorophenoxy)butyl)piperidine bromide], in experiment [1], the Duration/h was 48 to 72 h and the “Onset Time/min” value is on record as 1 min. In addition, the “Onset Time/min” value with sciatic nerve of the rat (setting [2]) is listed as 1 min.

For `CCCC[N+]1(CCCCOc2cccc(F)c2)CCCC[C@H]1C(=O)Nc1c(C)cccc1C` (stereo partly drawn) [Compound of Example 26, (2S)-1-Butyl-2-((2,6-dimethylphenyl)carbamoyl)-1-(4-(3-fluorophenoxy)butyl)piperidine bromide], in experiment [1], the Duration/h lay within 48 to 72 h and the “Onset Time/min” value is reported as 1 min. Moreover, in the experiment with sciatic nerve of the rat (setting [2]), the Duration/h fell in the range of 24 to 42 h and the “Onset Time/min” value was 1 min.

`CCCC[N+]1(CCCCOc2cccc(C#N)c2)CCCC[C@H]1C(=O)Nc1c(C)cccc1C` (stereo partly drawn) [Compound of Example 27, (2S)-1-Butyl-1-(4-(3-cyanophenoxy)butyl)-2-((2,6-dimethylphenyl)carbamoyl)piperidine bromide]: in experiment [1], the Duration/h lay in the range of 48 to 72 h and the “Onset Time/min” value was found to be 1 min. Besides, in the experiment on sciatic nerve of the rat (setting [2]), the Duration/h was 24 to 48 h and the “Onset Time/min” value is recorded as 1 min.

As to `CCCC[N+]1(CCCCOc2cccc(C(F)(F)F)c2)CCCC[C@H]1C(=O)Nc1c(C)cccc1C` (stereo partly drawn) [Compound of Example 28, (2S)-1-Butyl-2-((2,6-dimethylphenyl)carbamoyl)-1-(4-(3-(trifluoromethyl)phenoxy)butyl) piperidine bromide], the Duration/h in experiment [1] lay within 48 to 72 h; with sciatic nerve of the rat (setting [2]) it was 24 to 48 h. The “Onset Time/min” value (in experiment [1]; in the experiment on sciatic nerve of the rat (setting [2])) was 1 min each time.

With `CCCC[N+]1(CCCCOc2ccc(C)cc2)CCCC[C@H]1C(=O)Nc1c(C)cccc1C` (stereo partly drawn) [Compound of Example 31, (2S)-1-Butyl-2-((2,6-dimethylphenyl)carbamoyl)-1-(4-(p-tolyloxy)butyl)piperidine bromide], in experiment [1], the Duration/h lay within 48 to 72 h and the “Onset Time/min” value is recorded as 1 min. In addition, in the experiment with sciatic nerve of the rat (setting [2]), the Duration/h fell in the range of 24 to 30 h and the “Onset Time/min” value is 1 min.

On to `Cc1cccc(C)c1NC(=O)[C@@H]1CCCC[N+]1(CCCCOc1ccccc1)CC1CCCC1` (stereo partly drawn) [Compound of Example 36, (2S)-1-(Cyclopentylmethyl)-2-((2,6-dimethylphenyl)carbamoyl)-1-(4-phenoxybutyl)piperidine bromide], for which the Duration/h is 48 to 72 h in experiment [1] and 30 to 48 h in the experiment with sciatic nerve of the rat (setting [2]). In addition, the “Onset Time/min” value (in experiment [1]; with sciatic nerve of the rat (setting [2])) was 1 min throughout.

With `Cc1cccc(C)c1NC(=O)[C@@H]1CCCC[N+]1(CCCCOc1ccccc1)CCCC(C)C` (stereo partly drawn) [Compound of Example 38, (2S)-2-((2,6-Dimethylphenyl)carbamoyl)-1-(4-methylpentyl)-1-(4-phenoxybutyl)piperidine bromide], in experiment [1], the Duration/h fell in the range of 48 to 72 h and the “Onset Time/min” value is listed as 1 min. In the experiment with sciatic nerve of the rat (rat, in vivo), the Duration/h is 48 to 72 h and the “Onset Time/min” value was found to be 1 min.

Take `CCCC[N+]1(CCCCOc2ccccc2)CCCC[C@H]1C(=O)Nc1c(Br)cccc1Br` (stereo partly drawn) [Compound of Example 40, (2S)-1-Butyl-2-((2,6-dibromophenyl)carbamoyl)-1-(4-phenoxybutyl)piperidine bromide]: in experiment [1], the Duration/h lay within 48 to 72 h and the “Onset Time/min” value turned out to be 1 min. In addition, in the experiment on sciatic nerve of the rat (rat, in vivo), the Duration/h fell in the range of 32 to 48 h and the “Onset Time/min” value is 1 min.

As for `CCCC[N+]1(CCCCOc2cccc3c2OC(C)(C)C3)CCCC[C@H]1C(=O)Nc1c(C)cccc1C` (stereo partly drawn) [Compound of Example 44, (2S)-1-Butyl-1-(4-((2,2-dimethyl-2,3-dihydrobenzofuran-7-yl)oxy)butyl)-2-((2,6-dimethylphenyl)carbamoyl)piperidine bromide], in experiment [1], the Duration/h lay in the range of 48 to 72 h and the “Onset Time/min” value came out at 1 min. Also, the “Onset Time/min” value in the experiment with sciatic nerve of the rat (setting [2]) came to 1 min.
